Laboratory results from ChEMBL document CHEMBL3351769, “Poly-guanidinoethylphenylethers organised around a benzene ring: synthesis and evaluation of their antibacterial and cytotoxic properties” (Bioorg Med Chem Lett, 2014).

What was measured:
[1] = Selectivity index, ratio of IC50 for human MRC5 cells after 24 hrs to MIC for Pseudomonas aeruginosa ATCC 27853; assay type: toxicity, cell-based; conditions: read-out: Selectivity Index
Staphylococcus aureus [2] = experiment: Antimicrobial activity against Staphylococcus aureus ATCC 25923 by broth microdilution method; assay type: functional
[3] = Selectivity index, ratio of IC50 for human MRC5 cells after 24 hrs to MIC for Staphylococcus aureus ATCC 29213; assay type: toxicity, cell-based; conditions: read-out: Selectivity Index
MRC5 [4] = experiment: Cytotoxicity against human MRC5 cells after 48 hrs by MTT assay; assay type: cell-based; conditions: MRC5, 48 h
MRC5 [5] = experiment: Cytotoxicity against human MRC5 cells after 24 hrs by MTT assay; assay type: cell-based; conditions: MRC5, 24 h
Pseudomonas aeruginosa = experiment: Antimicrobial activity against Pseudomonas aeruginosa ATCC 27853 by broth microdilution method; assay type: functional
[6] = Selectivity index, ratio of IC50 for human MRC5 cells after 24 hrs to MIC for Escherichia coli ATCC 25922; assay type: toxicity, cell-based; conditions: read-out: Selectivity Index
[7] = Selectivity index, ratio of IC50 for human MRC5 cells after 24 hrs to MIC for Enterococcus faecalis ATCC 29212; assay type: toxicity, cell-based; conditions: read-out: Selectivity Index
Enterococcus faecalis = experiment: Antimicrobial activity against Enterococcus faecalis ATCC 29212 by broth microdilution method; assay type: functional
Staphylococcus aureus [8] = experiment: Antimicrobial activity against Staphylococcus aureus ATCC 29213 by broth microdilution method; assay type: functional
[9] = Selectivity index, ratio of IC50 for human MRC5 cells after 24 hrs to MIC for Staphylococcus aureus ATCC 25923; assay type: toxicity, cell-based; conditions: read-out: Selectivity Index
Escherichia coli = experiment: Antimicrobial activity against Escherichia coli ATCC 25922 by broth microdilution method; assay type: functional

## N=C(N)NCCc1ccc(OCc2ccccc2)cc1.O=C(O)C(F)(F)F
[1]
  selectivity ratio at 24 h: 0.4
Staphylococcus aureus [2]
  MIC: 16 µg/mL
[3]
  selectivity ratio at 24 h: 3
MRC5 [4]
  IC50: 19 µg/mL
MRC5 [5]
  IC50: 26 µg/mL
Pseudomonas aeruginosa
  MIC: 64 µg/mL
[6]
  selectivity ratio at 24 h: 0.8
[7]
  selectivity ratio at 24 h: 0.2
Enterococcus faecalis
  MIC: 128 µg/mL
Staphylococcus aureus [8]
  MIC: 8 µg/mL
[9]
  selectivity ratio at 24 h: 1.5
Escherichia coli
  MIC: 32 µg/mL

## N=C(N)NCCc1ccc(OCc2ccccc2COc2ccc(CCNC(=N)N)cc2)cc1.O=C(O)C(F)(F)F
[1]
  selectivity ratio at 24 h: 6.2
Staphylococcus aureus [2]
  MIC: < 1 µg/mL
[3]
  selectivity ratio at 24 h: > 100
MRC5 [4]
  IC50: 41 µg/mL
MRC5 [5]
  IC50: 100 µg/mL
Pseudomonas aeruginosa
  MIC: 16 µg/mL
[6]
  selectivity ratio at 24 h: 12.5
[7]
  selectivity ratio at 24 h: 12.5
Enterococcus faecalis
  MIC: 8 µg/mL
Staphylococcus aureus [8]
  MIC: < 1 µg/mL
[9]
  selectivity ratio at 24 h: > 100
Escherichia coli
  MIC: 8 µg/mL

## N=C(N)NCCc1ccc(OCc2cccc(COc3ccc(CCNC(=N)N)cc3)c2)cc1.O=C(O)C(F)(F)F
[1]
  selectivity ratio at 24 h: 1
Staphylococcus aureus [2]
  MIC: < 1 µg/mL
[3]
  selectivity ratio at 24 h: 17
MRC5 [4]
  IC50: 29.7 µg/mL
MRC5 [5]
  IC50: 34.5 µg/mL
Pseudomonas aeruginosa
  MIC: 32 µg/mL
[6]
  selectivity ratio at 24 h: 2
[7]
  selectivity ratio at 24 h: 2
Enterococcus faecalis
  MIC: 16 µg/mL
Staphylococcus aureus [8]
  MIC: 2 µg/mL
[9]
  selectivity ratio at 24 h: > 34.5
Escherichia coli
  MIC: 16 µg/mL

## N=C(N)NCCc1ccc(OCc2ccc(COc3ccc(CCNC(=N)N)cc3)cc2)cc1.O=C(O)C(F)(F)F
[1]
  selectivity ratio at 24 h: 5.25
Staphylococcus aureus [2]
  MIC: 1 µg/mL
[3]
  selectivity ratio at 24 h: 21
MRC5 [4]
  IC50: 12.7 µg/mL
MRC5 [5]
  IC50: 21 µg/mL
Pseudomonas aeruginosa
  MIC: 4 µg/mL
[6]
  selectivity ratio at 24 h: 5.25
[7]
  selectivity ratio at 24 h: 10.5
Enterococcus faecalis
  MIC: 2 µg/mL
Staphylococcus aureus [8]
  MIC: 1 µg/mL
[9]
  selectivity ratio at 24 h: 21
Escherichia coli
  MIC: 4 µg/mL

## N=C(N)NCCc1ccc(OCc2cc(COc3ccc(CCNC(=N)N)cc3)cc(COc3ccc(CCNC(=N)N)cc3)c2)cc1.O=C(O)C(F)(F)F
[1]
  selectivity ratio at 24 h: 2.5
Staphylococcus aureus [2]
  MIC: < 1 µg/mL
[3]
  selectivity ratio at 24 h: > 39.5
MRC5 [4]
  IC50: 30 µg/mL
MRC5 [5]
  IC50: 39.5 µg/mL
Pseudomonas aeruginosa
  MIC: 16 µg/mL
[6]
  selectivity ratio at 24 h: > 39.5
[7]
  selectivity ratio at 24 h: 5
Enterococcus faecalis
  MIC: 8 µg/mL
Staphylococcus aureus [8]
  MIC: < 1 µg/mL
[9]
  selectivity ratio at 24 h: > 39.5
Escherichia coli
  MIC: < 1 µg/mL

## N=C(N)NCCc1ccc(OCc2cc(COc3ccc(CCNC(=N)N)cc3)c(COc3ccc(CCNC(=N)N)cc3)cc2COc2ccc(CCNC(=N)N)cc2)cc1.O=C(O)C(F)(F)F
[1]
  selectivity ratio at 24 h: 6
Staphylococcus aureus [2]
  MIC: 2 µg/mL
[3]
  selectivity ratio at 24 h: > 49
MRC5 [4]
  IC50: 38.5 µg/mL
MRC5 [5]
  IC50: 49 µg/mL
Pseudomonas aeruginosa
  MIC: 8 µg/mL
[6]
  selectivity ratio at 24 h: 12
[7]
  selectivity ratio at 24 h: 12.2
Enterococcus faecalis
  MIC: 4 µg/mL
Staphylococcus aureus [8]
  MIC: < 1 µg/mL
[9]
  selectivity ratio at 24 h: 24.5
Escherichia coli
  MIC: 4 µg/mL

## N=C(N)NCCc1ccc(OCc2c(COc3ccc(CCNC(=N)N)cc3)c(COc3ccc(CCNC(=N)N)cc3)c(COc3ccc(CCNC(=N)N)cc3)c(COc3ccc(CCNC(=N)N)cc3)c2COc2ccc(CCNC(=N)N)cc2)cc1.O=C(O)C(F)(F)F
[1]
  selectivity ratio at 24 h: 1.5
Staphylococcus aureus [2]
  MIC: 8 µg/mL
[3]
  selectivity ratio at 24 h: 3
MRC5 [4]
  IC50: 30 µg/mL
MRC5 [5]
  IC50: 26 µg/mL
Pseudomonas aeruginosa
  MIC: 16 µg/mL
[6]
  selectivity ratio at 24 h: 1.5
[7]
  selectivity ratio at 24 h: 3
Enterococcus faecalis
  MIC: 8 µg/mL
Staphylococcus aureus [8]
  MIC: 8 µg/mL
[9]
  selectivity ratio at 24 h: 3
Escherichia coli
  MIC: 16 µg/mL
